According to patent US20130324437A1, “METHOD FOR IDENTIFYING ANTIMICROBIAL COMPOUNDS AND DETERMINING ANTIBIOTIC SENSITIVITY” (THE REGENTS OF THE UNIVERSITY OF CALIFORNIA, priority 2010, published 2013):
In brackets after ≈: the same amount, converted by molar mass. Where two headings read alike, the source gives them in different places.

Legend:
Bacillus subtilis = test: Cytological profiling of Bacillus subtilis (FM 4-64, DAPI, Sytox Green); assay type: cell-based; settings: FIG. 8
Description: (§1) FIG. 8. Affect of various treatments on Bacillus subtilis cell architecture and permeability. (A-J) Cytological profiling. Cells were stained with the membrane stain FM 4-64 (red) and the membrane impermeable nucleotide stains Sytox Green (green) and DAPI (blue) and visualized 2 hours after treatment unless otherwise noted. […] Cells imaged after 1 hr of treatment. […] Cells were imaged after 8 hours. (K) Cell permeability as assessed by Sytox staining intensity per pixel.
The effects of these drugs on the Gram positive bacterium Bacillus subtilis was determined using the fluorescent membrane stain FM 4-64 and two nucleotide stains that are membrane impermeable (DAPI and Sytox).

[1] = tested on: proton motive force (PMF); test: DiSC3(5) fluorometer assay of proton motive force; assay type: cell-based, Bacillus subtilis; settings: vancomycin at the MIC
Description: as §1
The fluorescent stain DiSC3(5) was used in a fluorometer assay, in which cells with a decreased PMF show increased fluorescence.

[2] = tested on: Escherichia coli and Bacillus subtilis cells; test: Summary of cytological profiles by mechanism of action (FIG. 1); assay type: cell-based; settings: example compound of the MOA class
Description: FIG. 1. Summary of cytological profiles for drugs with the indicated mechanisms of action (MOA).
To determine if different classes of antimicrobials can be distinguished based on cytological parameters, comparative cytological analysis of Escherichia coli and Bacillus subtilis cells treated with several different classes of antibiotics was performed. […] Also included were nonspecific inhibitors such as bleach, ethidium bromide, and sodium docecyl sulfate. […] This analysis is expanded to molecules with unknown MOAs as described below.

[3] = tested on: E. coli strains JP750 or W3110; test: Determination of MIC (growth in LB with antibiotic); assay type: cell-based; settings: Escherichia coli, read-out: minimal inhibitory concentration (MIC)
Description: The minimal inhibitory concentration (MIC) of each antibiotic was determined for E. coli strains JP750 or W3110, and for Bacillus subtilis strain PY79. A test tube containing 5 ml of LB was inoculated with a single colony and grown until the culture reached a density of approximately 2×10^8 cells/ml. Small inoculums (20 μl) of this culture were then diluted into LB containing various concentrations of antibiotic ranging from 0 to 200 μg/ml and the cultures were incubated overnight at 30° C. The MIC was the lowest concentration that blocked growth.

E. coli = test: Growth curve (optical density at 600 nm); assay type: cell-based, Escherichia coli
E. coli strain JP750 [4] = assay type: cell-based, Escherichia coli; settings: for chromosome morphology: 2 hours treatment; for cell length: cell elongation, FIG. 2 / FIG. 3; for chromosomes exhibiting doughnut or ring shape: lethal dose (MIC), 2 hours, n=50
Description: The dose-dependent cytological profiles for the various classes of antibiotics was determined. In general, a series of cultures of the appropriate strain were grown in LB at 30° C. until the cultures reached a density of approximately 2×10^8 cells/ml, at which point the compound of interest was added so that the final concentrations ranged from 0 to 200 μg/ml. For each compound, samples representing ⅕×, 1× and 5× the MIC were examined. Samples were taken at various times after addition of drug (ranging from 0.2 to 3 hours). The cells were stained with FM 4-64 (1 μg/ml) to visualize the cell membranes and DAPI (5 μg/ml) to visualize the chromosome (Pogliano et al. (1999) Mol. Microbiol. 31:1149).
Images of each stain and any fluorescently-tagged fusion protein present in the strain were then captured using a high resolution microscope. Cell length and width, chromosome length and shape, distance of the chromosome from each cell pole, the number of chromosomes per cell, and the presence and distribution of GFP (or GFP fusions) present within the cells were measured.
Strain JP750 expresses a SeqA-GFP fusion from an IPTG dependent promoter. SeqA-GFP forms fluorescent foci that indicate the position of DNA replication forks/hemimethylated DNA within the cell (Brendler et al. (2000) EMBO 19:6249). After two hours of growth, samples were taken, stained with FM 4-64 (1 μg/ml) to visualize the cell membranes, and DAPI (5 μg/ml) to visualize the chromosome.

E. coli strain JP750 [5] = settings: Pogliano et al. 1997; cited from earlier work
[6] = tested on: gram positive bacteria and the E. coli imp mutant; settings: Kang et al. (2009); Pache & Champman (1972); cited from earlier work
E. coli imp strain = test: Cytological profiling of E. coli imp strain (DAPI staining intensity); assay type: cell-based, Escherichia coli; settings: 10 minute exposure, FIG. 10
Description: FIG. 10. Measurements of DAPI staining for single cells after 10 minute exposure to nisin, Spirohexenolide A, chlorothricin, and DMSO. […] Cells treated with nisin, SpiroA, and chlorothricin show increased fluorescence comparted to untreated control.
Cytological profiling was used to determine the MOA of spirohexenolide A. A culture of the E. coli imp strain was grown in LB media at 30° C. and spirohexenolide A was added at various concentrations. After either 10 minutes or two hours, samples were stained with FM 4-64 and DAPI for examination with a fluorescence microscope. The cytological profile of spirohexenolide A was identical to that for nisin, a compound that forms channels in the membrane. Chromosome stains such as DAPI and Sytox green are partially excluded from the cell by the cytoplasmic membrane in untreated cells, but are taken up in cells treated with permeablizers such as nisin.

N#CC(C#N)=NNc1cccc(Cl)c1 [CCCP]
cytological phenotype (membrane, chromosome, permeability) (Bacillus subtilis): cells with uneven membrane staining and decondensed chromosomes
effect on proton motive force / membrane polarization [1]: rapidly depolarizes the membranes

CCn1cc(C(=O)O)c(=O)c2ccc(C)nc21 [nalidixic acid]
cytological profile (FIG. 1 summary) [2]: produces elongated cells with centrally localized and fragmented DNA
MIC [3]: 0.5 µg/mL (≈ 2.15 µM)
effect on growth (optical density at 600 nm) (E. coli; five-fold below the MIC): no detectable effect on growth
effect on growth (E. coli; lethal dose (1×MIC)): reduced growth
chromosome morphology (E. coli strain JP750 [4]): elongated chromosomes
SeqA-GFP foci distribution (E. coli strain JP750 [4]; LB, 30° C., FIG. 2): highly elongated chromosomes in which the SeqA foci are clustered together
cell length (E. coli strain JP750 [4]): caused elongation

CC1=C(C(=O)O)N2C(=O)[C@@H](NC(=O)[C@H](N)c3ccccc3)[C@H]2SC1 [cephalexin]
cytological profile (FIG. 1 summary) [2]: produces elongated cells with multiple chromosomes
chromosome shape (E. coli strain JP750 [5]): chromosome shape is not affected
cell length (E. coli strain JP750 [4]): elongated

O=C(N[C@H](CO)[C@H](O)c1ccc([N+](=O)[O-])cc1)C(Cl)Cl [chloramphenicol]
cytological profile (FIG. 1 summary) [2]: leads to a toroidal chromosome and wider cells
MIC ([3]; LB, overnight at 30° C.): 5 µg/mL (≈ 15.5 µM)
chromosome morphology (E. coli strain JP750 [4]): caused chromosomes to form rings
distance between edge of chromosome and cell pole (E. coli strain JP750 [4]; lethal dose (5 μg/ml), two hours): dramatic increase
chromosomes exhibiting doughnut or ring shape (E. coli strain JP750 [4]): 98%

CC1(C)S[C@@H]2[C@H](NC(=O)Cc3ccccc3)C(=O)N2[C@H]1C(=O)O [penicillin G]
cytological profile (FIG. 1 summary) [2]: causes chromosome condensation and lysis
cytological phenotype (membrane, chromosome, permeability) (Bacillus subtilis): cells with condensed chromosomes that lyse at various times

COc1ccc(Cl)c(C)c1C(=O)O[C@@H]1C[C@H](O[C@H]2[C@H](O)C[C@H](O[C@H]3CCC[C@@H]4[C@@H]3C=C[C@H]3CCCC/C=C/[C@@H]5C=C(C(=O)O)[C@H](C)C[C@]56OC(=O)C(=C6O)OC(=O)[C@@]43C)O[C@@H]2C)O[C@H](C)[C@H]1O [chlorothricin]
antibacterial spectrum [6]: active against gram positive bacteria and the E. coli imp mutant
DAPI staining (E. coli imp strain): increased DAPI staining

[Na+].[O-]Cl [bleach]
cytological profile (FIG. 1 summary) [2]: causes the chromosome to condense into a dramatic ribbon-like structure

nisin
cytological profile (FIG. 1 summary) [2]: show increased permeability at early times
cytological phenotype (membrane, chromosome, permeability) (Bacillus subtilis): increased DAPI and Sytox staining
effect on proton motive force / membrane polarization [1]: rapidly collapse the proton motive force (PMF)
DAPI staining intensity relative to untreated (WT) cells (E. coli imp strain): 5 ×

[H]/N=C(/N)N[C@H]1[C@H](O)[C@@H](O)[C@H](O[C@@H]2O[C@@H](C)[C@](O)(C=O)[C@H]2O[C@@H]2O[C@@H](CO)[C@H](O)[C@@H](O)[C@@H]2NC)[C@@H](N/C(N)=N\[H])[C@@H]1O [streptomycin]
MIC ([3]; LB, overnight at 30° C.): 50 µg/mL (≈ 86 µM)
chromosome morphology (E. coli strain JP750 [4]): condensed chromosomes but not ring formation

COc1cc(Cc2cnc(N)nc2N)cc(OC)c1OC [trimethoprim]
cytological profile (FIG. 1 summary) [2]: condense the chromosome without affecting cell width

polymyxin B
cytological profile compared with reference (E. coli strain JP750 [4]; two hours at the MIC): cytological profile similar to CHIR-090

CC1=C[C@]2(C)/C=C(C)/C=C/C[C@@H](O)/C=C3C=C/C(=C4\C(=O)O[C@]2(C[C@@H]1C)C4=O)OC/3 [Spirohexenolide A]
antibacterial spectrum [6]: active against gram positive bacteria and the E. coli imp mutant
DAPI staining intensity relative to untreated (WT) cells (E. coli imp strain): 5 ×

CN(C)[C@@H]1C(O)=C(C(N)=O)C(=O)[C@@]2(O)C(O)=C3C(=O)c4c(O)cccc4[C@@](C)(O)[C@H]3C[C@@H]12 [tetracycline]
MIC ([3]; LB, overnight at 30° C.): 20 µg/mL (≈ 45 µM)
chromosomes exhibiting doughnut or ring shape (E. coli strain JP750 [4]): 98%

CN[C@H](CC(C)C)C(=O)N[C@H]1C(=O)N[C@@H](CC(N)=O)C(=O)N[C@H]2C(=O)N[C@H]3C(=O)N[C@H](C(=O)N[C@H](C(=O)O)c4cc(O)cc(O)c4-c4cc3ccc4O)[C@H](O)c3ccc(c(Cl)c3)Oc3cc2cc(c3O[C@@H]2O[C@H](CO)[C@@H](O)[C@H](O)[C@H]2O[C@H]2C[C@](C)(N)[C@H](O)[C@H](C)O2)Oc2ccc(cc2Cl)[C@H]1O [vancomycin]
cytological profile (FIG. 1 summary) [2]: produces large internal membrane vesicles
cytological phenotype (membrane, chromosome, permeability) (Bacillus subtilis): internal membrane vesicles and increased DAPI and Sytox permeability in a subset of the cells
effect on proton motive force / membrane polarization [1]: no effect on PMF

C[C@@H](O)[C@H](NC(=O)c1ccc(C#Cc2ccc(CN3CCOCC3)cc2)cc1)C(=O)NO [CHIR-090]
cytological profile (FIG. 1 summary) [2]: produces chains of cells with increased permeability

NC[C@H]1O[C@H](O[C@H]2[C@H](O)[C@@H](O[C@H]3O[C@H](CO)[C@@H](O)[C@H](N)[C@H]3O)[C@H](N)C[C@@H]2N)[C@H](O)[C@@H](O)[C@@H]1O [kanamycin]
MIC ([3]; LB, overnight at 30° C.): 50 µg/mL (≈ 103 µM)
